Measurements: patent US12011443B2, “Pharmaceutical composition for preventing or treating nonalcoholic steatohepatitis” (J2H BIOTECH INC., priority 2018, dated 2024)

Assays:
[1] = system: non-alcoholic steatohepatitis C57BL/6 mouse model induced by the methionine and choline deficient (MCD) diet; assay: Non-alcoholic steatohepatitis treatment model (MCD diet), 6 weeks repeated oral administration; format: in vivo, C57BL/6 mice; details: for LDL level (blood biochemical test) / oil red O staining area level: p<0.01
Description: The MCD model, which is an animal model of steatohepatitis, was used. C57BL/6 mice were supplied with a MCD (methionine-choline deficient) diet for 5 days, followed by a normal diet for 2 days. In this way, for 10 weeks, the MCD diet and normal diet were alternately supplied. Animals were identified using tail marks during the acclimatization period (blue), dosing and observation period (red). Individual identification cards, distinguished by color, were attached to the breeding box, and an animal room usage record was attached to the entrance of the breeding room.
During the acclimatization period, blood biochemical tests and body weight measurements were performed. Mice were randomly distributed so that the average of each group was distributed as uniformly as possible according to the ranked ALT and body weight levels. [10 animals in the normal feed group (G1), 40 animals in the MCD diet group (G2-G5)]
The improvement effect that appeared when the test compound was repeatedly administered for 6 weeks to the non-alcoholic steatohepatitis C57BL/6 mouse model induced over 10 weeks with the MCD diet was evaluated. Test compound was administered once a day for 6 weeks. As a positive control, obeticholic acid (hereinafter referred to as OCA), which is currently undergoing a phase 3 clinical trial with non-alcoholic steatohepatitis as an indication, was used.
In the case of a control compound (obeticholic acid, 10 mg/kg/day), an appropriate amount was weighed and then diluted in sterile distilled water and administered. In the case of the test compound, after weighing the appropriate amount, it was diluted with 0.5 wt % methyl cellulose aqueous solution to which 1 wt % Tween 80 was added. During oral administration, the weight of the mouse was measured, and the animals were fixed using the cervical skin fixation method, and each test compound was administered using a sonde for oral administration.
It was measured at the start of administration, and once a week and on the day of autopsy after the start of administration.
It was measured right before the start of administration, and once a week after the start of administration of the test compound. As for the measurement method, the remaining amount of feed was measured per unit of breeding box next day after quantitative feeding, the difference was calculated, and the average intake per mouse was calculated.
The following items were tested using a blood biochemical analyzer (7180 Hitachi, Japan) with blood collected and separated at right before and the 6th week (the day of autopsy) after administration of the test compound.
Six weeks after administration of the test compound: ALT (alanine transaminase), AST (aspartate transaminase), TG (triglyceride), TCHO (total cholesterol), HDL (high-density lipoprotein), LDL (low-density lipoprotein), GGT (Gamma-glutamyltransferase), LDH (Lactate dehydrogenase)
On the day of autopsy, pimonidazole was diluted in saline at a concentration of 30 mg/ml, and then administered intravenously at a dose of 60 mg/kg. Animals were euthanized 90 minutes after administration. At each autopsy, the animals were inhaled with ether, and when anesthesia was confirmed, blood was collected from the posterior vena cava using a syringe. Thereafter, the abdominal aorta and posterior vena cava were cut, bleeding, and killed. Blood was injected into a vacutainer tube containing a clot activator, allowed to stand at room temperature for about 15 minutes to coagulate, and then centrifuged at 3,000 rpm for 10 minutes to separate the serum. Serum was stored in a deep freezer set at −70° C. or lower before analysis, and was used for blood biochemical tests.
At autopsy, the liver was excised and weighed, the right lobe of the liver was fixed in 10% neutral buffered formalin solution, and the left lobe was divided into half and rapidly frozen using liquid nitrogen. The quick-frozen specimens were stored in a cryogenic freezer set at −70° C. or lower until ELISA analysis. […]

[2] = system: non-alcoholic steatohepatitis prevention model, MCD feed, mice (C57BL/6); assay: Non-alcoholic steatohepatitis prevention model (MCD feed with simultaneous administration for 12 weeks); format: in vivo; details: 12 weeks with MCD feed, vs vehicle control group (G2)
Description: The efficacy of the test compound for preventing non-alcoholic steatohepatitis was evaluated. Using 7-week-old mice (C57BL/6), the normal group (G1) was supplied with general feed, and the vehicle control group (G2), positive control group (G3), and test groups (G4, G5) were supplied with the MCD feed for 12 weeks. Simultaneously with the MCD diet, test compounds and controls were administered orally once a day. Mice were divided into five groups, and a total of 75 mice, 15 mice per each group, were used for the experiment.
In order to evaluate the prophylactic efficacy, the test compound was administered for 12 weeks at the same time as induction with the MCD diet, and the efficacy of the test compound for the prevention of steatohepatitis was evaluated.
Each appropriate amount of the control compound (Obeticholic acid, 10 mg/kg/day) and the test compound was weighed, and then diluted in 0.5 wt % methyl cellulose aqueous solution to which 1 wt % Tween 80 was added. During oral administration, the weight of the mouse was measured, and the animals were fixed using the cervical skin fixation method, and each test substance was administered using a sonde for oral administration. […]

[3] = Tissue concentration after oral administration to the mouse; format: in vivo; details: 2 hours after oral administration
[4] = single administration and combined administration with metformin; cited from earlier work
[5] = clinical trials; cited from earlier work
[6] = 10 mg/kg/day (G4), vs vehicle control group (G2)
[7] = 30 mg/kg/day (G5), vs vehicle control group (G2)

SMILES: C[C@@H]1CN(c2ccc(S(C)(=O)=O)cc2F)CCN1c1nccc(C(=O)N[C@H]2C3CC4CC2C[C@](O)(C4)C3)n1 [Chemical Formula 1, 2-((R)-4-(2-fluoro-4-(methylsulfonyl)phenyl)-2-methylpiperazin-1-yl)-N-((1R,2s,3S,5S,7S)-5-hydroxyadamantan-2-yl)pyrimidine-4-carboxamide]
- ALT level (blood biochemical test) ([1]; 10 mg/kg/day (G3, G4) oral once a day, vs vehicle control group (G2), p<0.05): significantly lower
- Hydroxyproline expression area level ([1]; 10 mg/kg/day (G3, G4), vs normal control group (G1), p<0.001 or p<0.05): significantly higher
- Hydroxyproline expression area level ([1]; 10 mg/kg/day (G3, G4), vs vehicle control group (G2), p<0.001 or p<0.01): significantly lower
- TCHO level in liver tissue (ELISA) [1, 6]: significantly lower
- TG level in liver tissue (ELISA) [1, 6]: significantly lower
- LDL level (blood biochemical test) ([1]; 10 mg/kg/day (G4), vs vehicle control group (G2) and positive control group (G3)): significantly lower
- oil red O staining area level ([1]; 10 mg/kg/day (G4), vs vehicle control group): significantly lower
- ALT level (blood biochemical test) ([1]; 30 mg/kg/day (G5) oral once a day, vs vehicle control group (G2), p<0.001 or p<0.05): significantly lower
- TCHO level in liver tissue (ELISA) [1, 7]: significantly lower
- TG level in liver tissue (ELISA) [1, 7]: significantly lower
- LDL level (blood biochemical test) ([1]; 30 mg/kg/day (G5), vs vehicle control group (G2) and positive control group (G3)): significantly lower
- relative liver weight level ([1]; 30 mg/kg/day (G5), vs vehicle control group (G2) and positive control group (G3), p<0.01 or p<0.05): significantly lower
- Hydroxyproline expression area level ([1]; 30 mg/kg/day (G5), vs vehicle control group (G2), p<0.001 or p<0.01): significantly lower
- AST level (blood biochemical test) ([1]; 30 mg/kg/day (G5), vs vehicle control group (G2), p<0.001 or p<0.05): significantly lower
- liver weight level (absolute) ([1]; 30 mg/kg/day (G5), vs vehicle control group (G2), p<0.05): significantly lower
- oil red O staining area level ([1]; 30 mg/kg/day (G5), vs vehicle control group): significantly lower
- microvesicular steatosis level (histopathology) ([1]; 30 mg/kg/day (G5), vs vehicle control group, p<0.05): significantly lower
- effect of alleviating non-alcoholic steatohepatitis ([1]; 30 mg/kg/day, compared to positive control compound): superior
- blood biochemistry, liver relative weight, TG and TCHO content in liver tissue, and microvesicular steatosis level ([1]; high dose administration group, vs positive control group): lower than those of the positive control group
- LDH (FIG. 2) ([1]; high-dose administration group, compared to normal group): concentration similar to that of the normal group
- levels of inflammation (histopathology) ([1]; test compound administration group, vs vehicle control group): lower levels of inflammation
- LDH (FIG. 2) ([1]; test compound groups, compared to the positive control group): tends to decrease LDH
- triglycerides in liver tissue ([2]; 10 mg/kg/day (G3, G4) oral once a day): statistically significant decrease
- triglycerides in liver tissue ([2]; 30 mg/kg/day (G5) oral once a day): statistically significant decrease
- concentration of the liver tissue compared with plasma concentration [3]: higher than the plasma concentration
- efficacy as therapeutic agent for type 2 diabetes [4]: did not show sufficient efficacy

SMILES: CC[C@H]1[C@@H](O)[C@@H]2[C@H](CC[C@]3(C)[C@@H]([C@H](C)CCC(=O)O)CC[C@@H]23)[C@@]2(C)CC[C@@H](O)C[C@@H]12 [OCA, obeticholic acid]
- subjects showing stomach pain and fatigue [5]: more than 10%
- subjects with side effects like irregular heartbeat, dry skin, constipation, joint pain, peripheral edema, sore throat, thyroid hormone irregularity, rash [5]: about 10%
